Marks after values point to notes of the source that are not given here.
Assays:
[1] = tested on: methicillin-resistant VISA strain of S. aureus; assay: Experimental endocarditis in rabbits, methicillin-resistant VISA strain; type: in vivo
Method: (§1) Aortic valve endocarditis was established in New Zealand white rabbits weighing approximately 3 kg. Rabbits were anesthetized and the right carotid artery surgically exposed and cannulated with a polyethylene catheter which was advanced into the left ventricle of the heart. After at least 24 h, the rabbits were infected intravenously with 10^6-10^7 cells of a methicillin-resistant S. aureus strain (MRSA 27619). Twenty-four hours later, the animals were randomly assigned to different treatment groups; untreated control (9 rabbits); positive control, vancomycin 30 mg/kg twice daily (15); lysostaphin 5 mg/kg three times daily (11); lysostaphin 5 mg/kg once daily (10); lysostaphin 5 mg/kg once daily+vancomycin 30 mg/kg twice daily (11). Any rabbits whose infection was not confirmed by pre-treatment blood culture were eliminated.
(§2) All treatments were intravenous and were carried out for three days. The state of health of the rabbits was assessed at intervals. The rabbits were sacrificed 18 h after the last treatment. Aortic vegetations were removed and weighed and processed to determine the number of viable bacteria, expressed as log,10CFU/gram. The limit of detection is 10^2 CFU/gram (log10CFU/gram=2.0). The mean titers of bacteria per gram were compared by one-way analysis of variance. The Student-Newman-Keuls test was used to adjust for multiple comparisons.
Strains that are both methicillin-resistant and resistant to vancomycin are a newly emerging problem. A variant strain of this type was selected after cycles of growth in glycopeptide-containing medium. The vancomycin MIC for the resulting strain was 8 μg/ml, as reported also for naturally occurring VISA strains isolated from patients in the U.S. and Japan. (Centers for Disease Control and Prevention, Morbidity and Mortality Weekly Report 1997; 46:813-815). Staphylococcal isolates are considered to be susceptible to vancomycin if the MIC is less than or equal to 4 μg/ml and to be completely resistant if the MIC is greater than or equal to 32 μg/ml (National Committee for Clinical Laboratory Standards, 1993. Approved Standard M2-A5. Performance standards for antimicrobial disk susceptibility tests—Fifth edition. National Committee for Clinical Laboratory Standards, Villanova, Pa.)

S. aureus [2] = assay: MIC by broth macrodilution in glass tubes; type: cell-based
Method: In this experiment, MICs were determined by broth macrodilution in 1 ml final volumes in glass tubes. Otherwise, the methodology was as described above.

MRSA 27619 = assay: Experimental aortic valve endocarditis in rabbits, MRSA 27619; type: in vivo, S. aureus; details: for Mean log10CFU/gram of vegetation / Number of sterile vegetations/total animals treated: three days
Method: as §1, with “(11).” for “(11). Any rabbits whose infection was not confirmed by pre-treatment blood culture were eliminated.”
as §2
Comparison of the rates of sterilization were made using Fisher's exact test. Statistical significance was defined as a P value of ≦0.05.
Kidney abscesses were also assessed for the presence of staphylococci.

[3] = tested on: Staphylococcus epidermidis; assay: MIC against Staphylococcus epidermidis clinical isolates; type: cell-based; details: 11 of 13 clinical isolates of S. epidermidis tested
Description: (§3) Approved Standard M7-A3. Methods for dilution antimicrobial susceptibility tests for bacteria that grow aerobically—Third edition. National Committee for Clinical Laboratory Standards, Villanova, Pa.; National Committee for Clinical Laboratory Standards, 1992. Tentative Guideline M26-T. Methods for determining bactericidal activity of antimicrobial agents. National Committee for Clinical Laboratory Standards, Villanova, Pa.].

S. aureus [4] = assay: MIC by standard broth microdilution; type: cell-based
Description: as §3

S. aureus strain AG461 = details: strain AG461 (methicillin-resistant clinical isolate)
Description: The different concentrations of lysostaphin and vancomycin used were one and eight times their respective MIC.

[5] = single parenteral dose, followed by gentamicin three days later; the patient died; cited from earlier work
[6] = intraperitoneal infection, cited from earlier work
S. aureus [7] = assay: MBC by standard broth microdilution (kills 99.9% of inoculum in 24 h); type: cell-based
Description: as §3

[8] = clinical isolates of S. aureus (summary of Table 1a)
[9] = strain 404 (clinical isolate, methicillin-resistant)
[10] = strain 450M (clinical isolate, methicillin-resistant)
[11] = strain 1573 (clinical isolate, methicillin-resistant)
[12] = strain 27222 (clinical isolate, methicillin-resistant)
[13] = strain 27286 (clinical isolate, methicillin-resistant)
[14] = strain 27287 (clinical isolate, methicillin-resistant)
[15] = strain 27295 (clinical isolate, methicillin-resistant)
[16] = strain 27619 (clinical isolate, methicillin-resistant)
[17] = strain 27619VR (laboratory-derived, intermediate susceptibility to vancomycin)
[18] = strain 27621 (clinical isolate, methicillin-resistant)
[19] = strain 27622 (clinical isolate, methicillin-resistant)
[20] = strain 27698 (clinical isolate, methicillin-resistant)
[21] = strain 29293 (clinical isolate, methicillin-resistant)
[22] = strain COL (clinical isolate, methicillin-resistant)
[23] = strain HP5827 (clinical isolate, methicillin-resistant, VISA)
[24] = strain HP5836 (clinical isolate, methicillin-resistant, VISA)

lysostaphin: recombinant lysostaphin enzyme from fermentation of B. sphaericus; majority component lacks the two N-terminal amino acids of the published sequence
7.08 log10CFU/gram: Mean log10CFU/gram of vegetation (MRSA 27619; 5 mg/kg once daily iv)
0.25 µg/mL: MIC (S. aureus [4]; strain 412) | MIC (S. aureus [4]; strain 414) | MIC Without BSA (S. aureus [4]; strain 414) | MIC (S. aureus [4]; [10]) | MIC (S. aureus [4]; [12]) | MIC (S. aureus [4]; [13]) | MIC (S. aureus [4]; [14]) | MIC Without BSA (S. aureus [4]; [14]) | MIC (S. aureus [4]; [16]) | MIC Without BSA (S. aureus [4]; [16]) | MIC (S. aureus [4]; [20]) | MBC (S. aureus [7]; strain 412) | MBC (S. aureus [7]; strain 414) | MBC (S. aureus [7]; [12]) | MBC (S. aureus [7]; [14]) | MBC (S. aureus [7]; [15]) | MBC (S. aureus [7]; [18]) | MBC (S. aureus [7]; [19]) | MBC (S. aureus [7]; [21]) | MBC (S. aureus [7]; [22])
10/11^c: Number of sterile vegetations/total animals treated (MRSA 27619; 5 mg/kg three times daily iv)
4.0** log10 CFU/g: CFU/g vegetation (expressed as log10 of the mean) ([1]; 15 mg/kg twice daily)
1 µg/mL: MBC (S. aureus [7]; [11]) | MBC (S. aureus [7]; [24])
≤ 8 µg/mL: MIC [3]
6.29 log10 CFU/g: CFU/g vegetation (expressed as log10 of the mean) ([1]; 5 mg/kg three times daily)
0/5: sterile/total vegetations ([1]; 15 mg/kg twice daily)
50%: survival of treated mice ([6]; single or multiple subcutaneous administrations, total approximately 1 mg/kg)
8 ng/mL: MIC (S. aureus [2]; strain AG402 (clinical isolate)) | MIC (S. aureus [2]; strain AG404 (clinical isolate, methicillin-resistant))
~10^2 CFU/gram of tissue: bacterial load in kidney abscesses (MRSA 27619; thrice-daily regimen (5 mg/kg), controls just under 10^8 CFU/gram)
2.26 log10CFU/gram: Mean log10CFU/gram of vegetation (MRSA 27619; 5 mg/kg three times daily iv)
0.13 µg/mL: MIC (S. aureus [4]; [15]) | MIC Without BSA (S. aureus [4]; [15]) | MIC (S. aureus [4]; [22])
≤ 1.0 µg/mL: minimal inhibitory concentrations (MIC) (S. aureus [4]; [8]) | minimal bactericidal concentrations (MBC) (S. aureus [7]; [8])
4 ng/mL: MIC (S. aureus [2]; strain AG414) | MIC (S. aureus [2]; strain AG417) | MIC (lower time-kill concentration stated to be one times MIC) (S. aureus strain AG461)
100%: mice protected ([6]; total dosage of 6 mg/kg)
0.06 µg/mL: MIC (S. aureus [4]; [18]) | MIC (S. aureus [4]; [19]) | MIC (S. aureus [4]; [21])
all in good health: state of health of the rabbits (MRSA 27619; thrice-daily regimen, early in the treatment cycle)
2/10: sterile/total vegetations ([1]; 5 mg/kg three times daily) | Number of sterile vegetations/total animals treated (MRSA 27619; 5 mg/kg once daily iv)
reduction in bacteremia: outcome in one very ill human patient [5]
0.5 µg/mL: MIC Without BSA (S. aureus [4]; strain 401 (clinical isolate)) | MIC (S. aureus [4]; strain 402 (clinical isolate)) | MIC (S. aureus [4]; [9]) | MIC Without BSA (S. aureus [4]; [9]) | MIC (S. aureus [4]; [11]) | MIC (S. aureus [4]; [17]) | MIC (S. aureus [4]; [23]) | MIC (S. aureus [4]; [24]) | MBC (S. aureus [7]; strain 402 (clinical isolate)) | MBC (S. aureus [7]; [9]) | MBC (S. aureus [7]; [10]) | MBC (S. aureus [7]; [13]) | MBC (S. aureus [7]; [16]) | MBC (S. aureus [7]; [17]) | MBC (S. aureus [7]; [20]) | MBC (S. aureus [7]; [23])
